Results: patent US20110105389A1 (priority 2009, published 2011)
pIC50, pKi: −log10 of the molar value. Like-named read-outs stand apart in the source and are kept apart here.

Columns and labels:
[1] = target: T1, human ghrelin receptor (GRLN, growth hormone secretagogue receptor, hGHS-R1a) (Homo sapiens, UniProt Q92847); experiment: Competitive radioligand binding assay (ghrelin receptor), Method B1
T1 construct: purchased PerkinElmer BioSignal #RBHGHSM, lot#1887; host or cells: HEK-293 cells, stably transfected (membranes)
T1 sequence (Q92847 whole entry): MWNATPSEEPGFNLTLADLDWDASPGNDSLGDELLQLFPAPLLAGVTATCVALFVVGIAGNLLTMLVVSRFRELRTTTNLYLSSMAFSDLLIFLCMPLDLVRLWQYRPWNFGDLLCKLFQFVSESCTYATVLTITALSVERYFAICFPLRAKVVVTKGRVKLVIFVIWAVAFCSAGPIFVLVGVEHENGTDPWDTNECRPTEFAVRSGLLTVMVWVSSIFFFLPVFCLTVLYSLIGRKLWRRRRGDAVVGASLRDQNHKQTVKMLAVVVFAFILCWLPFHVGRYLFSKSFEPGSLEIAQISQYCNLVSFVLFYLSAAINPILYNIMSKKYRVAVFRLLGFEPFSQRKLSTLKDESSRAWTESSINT
Procedure, shortened: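 Membranes incubated with compound 30 min at rt in 25 mM Hepes pH 7.4, 1 mM CaCl2, 5 mM MgCl2, 2.5 mM EDTA, 0.4% BSA, max 0.1% DMSO; filtered on PEI-soaked GF/C, washed with cold Tris, scintillation counted. Curves fitted by variable-slope non-linear regression.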

[2] = test system: rat stomach fundus strips; experiment: Ex-vivo potency evaluation on the rat stomach fundus (inhibition of ghrelin-induced contractility), Method B10; conditions: EFS
Procedure: B10. Ex-vivo Potency Evaluation on the Rat Stomach Fundus
Fundus strips (approximately 0.4×1 cm) were cut from the stomach of adult male Wistar rats parallel to the circular muscle fibers. They were placed between two platinum ring electrodes, 1 cm apart (Radnoti, ADlnstruments, USA) in 10 ml tissue baths containing Krebs solution bubbled with 5% CO2 in O2 and maintained at 37° C. Tissues were suspended under 1.5 g resting tension. Changes of tension were measured isometrically with force transducers and recorded with a PowerLab 8/30 data acquisition system (ADlnstruments, USA). Tissues were allowed to equilibrate for 60 min during which time bath solutions were changed every 15 min.
EFS was achieved by applying 0.5 ms pulses, 5 Hz frequency, at a maximally effective voltage of 70 V. EFS was applied for 30 sec at 3 min intervals for a 30 min initial period. This initial period was separated by a […] interval with wash out of the bath solution. Then, a second period of stimulation was started. […] Responses to the agents were measured and expressed as % of the mean of three or four pre-drug responses to EFS. All compounds were dissolved at 1 mM in distilled water or MeOH, as stock solutions.
IC50 values for the inhibition of ghrelin-induced contractility by representative compounds of the invention are presented in Table 7.

[3] = target: T2, GHS-R1a receptor (HEK293 cells expressing GHS-R1a receptor) (Homo sapiens, UniProt Q92847); experiment: Fluorescence functional assay (ghrelin receptor), Method B2, agonist and antagonist mode; type: cell-based; conditions: functional activity as an antagonist at the ghrelin receptor, Methods B2 and B3
T2 construct: host or cells: HEK293
T2 sequence (Q92847 whole entry): as above
Procedure, shortened: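 Calcium flux read by ImageTrak epifluorescence in HEK293 cells stably expressing GHS-R1a, loaded 1 h at 37 °C with Calcium-3 dye; buffer HBSS/20 mM Hepes, pH 7.4, with probenecid and BSA. Agonists injected after 10 s baseline, read 50 s more; antagonists 3 min. Sigmoidal fits gave EC50 or IC50.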

CYP2D6 = CYP2D6 (Homo sapiens, UniProt P10635); experiment: biochemical
CYP2D6, sequence (P10635 whole entry): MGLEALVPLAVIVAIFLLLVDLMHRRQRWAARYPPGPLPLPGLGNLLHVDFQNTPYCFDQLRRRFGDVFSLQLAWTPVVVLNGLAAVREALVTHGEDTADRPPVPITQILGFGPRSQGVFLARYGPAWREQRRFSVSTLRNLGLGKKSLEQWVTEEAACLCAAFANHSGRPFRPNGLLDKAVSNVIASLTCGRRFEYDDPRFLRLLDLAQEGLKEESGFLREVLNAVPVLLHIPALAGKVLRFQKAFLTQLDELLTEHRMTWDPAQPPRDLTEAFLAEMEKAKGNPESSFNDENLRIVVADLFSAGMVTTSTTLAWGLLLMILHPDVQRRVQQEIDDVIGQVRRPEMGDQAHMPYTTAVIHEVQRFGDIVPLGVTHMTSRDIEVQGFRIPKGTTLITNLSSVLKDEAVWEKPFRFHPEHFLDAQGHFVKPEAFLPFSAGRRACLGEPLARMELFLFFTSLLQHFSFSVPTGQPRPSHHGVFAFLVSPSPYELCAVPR

CYP3A4 [4] = target: T3, CYP3A4 (Homo sapiens, UniProt P08684); experiment: biochemical
T3 sequence (P08684 whole entry): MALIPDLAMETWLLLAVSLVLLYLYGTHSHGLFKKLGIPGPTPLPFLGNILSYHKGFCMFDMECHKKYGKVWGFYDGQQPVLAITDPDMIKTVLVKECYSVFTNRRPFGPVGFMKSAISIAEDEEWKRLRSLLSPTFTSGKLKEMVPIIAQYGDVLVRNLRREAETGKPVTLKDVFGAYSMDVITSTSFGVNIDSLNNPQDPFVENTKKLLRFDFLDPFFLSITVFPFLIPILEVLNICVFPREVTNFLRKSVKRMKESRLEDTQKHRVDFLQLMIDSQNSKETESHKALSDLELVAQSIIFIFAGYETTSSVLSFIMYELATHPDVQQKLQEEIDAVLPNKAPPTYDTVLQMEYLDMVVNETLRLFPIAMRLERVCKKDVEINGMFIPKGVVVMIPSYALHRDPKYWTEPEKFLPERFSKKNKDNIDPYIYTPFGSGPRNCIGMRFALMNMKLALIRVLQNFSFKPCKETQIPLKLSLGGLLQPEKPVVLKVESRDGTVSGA

[5] = Metabolic stability in human liver microsomes, Method B8; type: in vitro ADME; conditions: human liver microsomes 0.8 mg/mL, 5 μM compound, 37° C.
Text: B8. Metabolic Stability in Human Liver Microsomes
The liver is the primary site for phase I (oxidation) and phase II (glucuronidation) enzymatic activity responsible for xenobiotic metabolism. Human liver microsomes are used as in vitro screen of metabolic activity for candidate drugs. Similar studies can be run with microsomes from other species, such as those used for in vivo studies, to determine any significant species differences in the stability profile. The aim of this study was to measure the broad-spectrum metabolic stability of representative compounds of the invention. The key aspects of the experimental design are summarized below: • Human liver microsomes (mixed pool of 15 male and female donors) were purchased from In Vitro Technologies (Baltimore, Md.). • Microsomes characterized for phase I (Cyp2A6, 2D6, 2E1, 1A2, 2C19, 3A4, 4A) and phase II (glucuronidation) enzymatic activity. • Assays are performed using a final concentration of 0.8 mg/mL of microsomes in 100 mM potassium phosphate buffer (1.5 mM NADPH, 8 mM MgCl2, pH 7.4, 37° C.). • Compounds are tested in duplicate samples at a single concentration of 5 μM (0.05% DMSO). • Test articles are incubated with the microsomes at 37° C.

[6] = target: T4, ghrelin receptor (HEK-GHSR1 stable cells) (Homo sapiens, UniProt Q92847); experiment: Ghrelin receptor inverse agonist assay (HTRF IP-one), Method B4; type: cell-based; conditions: inverse agonist at the ghrelin receptor, Method B4
T4 construct: expressed in transfected cells
T4 sequence (Q92847 whole entry): as the sequence (Q92847 whole entry) above
Procedure, shortened: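 HEK cells stably expressing GHSR1, seeded at 100 000 cells/well overnight, exposed to compound for 30 min at 37° C. Cells then lysed and IP1 accumulation measured by HTRF (d2 plus anti-IP1 cryptate, 1 h at room temp). Wells lacking d2 served as negative control.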

[7] = Plasma protein binding (equilibrium dialysis), Method B5; type: in vitro ADME; conditions: 60 min at 37° C., typically 10 μM
Text: B5. Plasma Protein Binding
The pharmacokinetic and pharmacodynamic properties of drugs are largely a function of the reversible binding of drugs to plasma or serum proteins such as albumin and α1-acid glycoprotein. In general, only unbound drug is available for diffusion or transport across cell membranes, and for interaction at the pharmacological target. On the other hand, drugs with low plasma protein binding generally have large volumes of distribution and rapid clearance since only unbound drug is available for glomerular filtration and, in some cases, hepatic clearance. Thus, the extent of plasma protein binding can influence efficacy, distribution and elimination. The ideal range for plasma protein binding is in the range of 87-98% for most drug products.
Protein binding studies were performed using human plasma. Briefly, 96-well microplates were used to incubate various concentrations of the test article for 60 min at 37° C. A concentration of 10 μM was a typical selection to be employed in this study. Bound and unbound fractions are separated by equilibrium dialysis, where the concentration remaining in the unbound fraction is quantified by LC-MS or LC-MS-MS analysis. […].

CYP3A4 [8] = target: T3, CYP3A4; experiment: Cytochrome P450 inhibition, Method B6 (two substrates); conditions: read-out: IC50 CYP 3A4; Table 4b; midazolam used as substrate
[9] = Pharmacokinetic analysis (intravenous and oral), Method B9; type: in vivo; conditions: Table 10b; 2 mg/mL intravenous typically employed
Text: B9. Pharmacokinetic Analysis
The pharmacokinetic (PK) behavior of compounds of the invention and their pharmaceutical compositions can be ascertained by methods well known to those skilled in the art and can be used to investigate the pharmacokinetic parameters (elimination half-life, total plasma clearance, etc.) for intravenous, subcutaneous and oral administration of these substances. (Wilkinson, G. R. “Pharmacokinetics: The Dynamics of Drug Absorption, Distribution, and Elimination” in Goodman & Gilman's The Pharmacological Basis of Therapeutics, Tenth Edition, Hardman, J. G.; Limbird, L. E., Eds., McGraw Hill, Columbus, Ohio, 2001, Chapter 1.) See also U.S. Pat. Nos. 7,476,653; 7,491,695; Intl. Pat. Appl. WO 2008/033328 and U.S. Patent Appl. Publ. 2008/0194672. As an example, compound 1505 has the PK profile below.
The determination of PK parameters for additional representative compounds of the invention is presented in the Examples.
A detailed analysis of the pharmacokinetic profile of representative compounds of the invention was conducted using the procedures outlined in Method B9.
A dose level of 2 mg/mL for intravenous administration and 8 mg/mL for oral administration were typically employed.

[10] = Ghrelin receptor binding activity, Method B1

| SMILES | pIC50 [1, 10] | Antagonist Activity [3] | HLM, metabolic stability in human liver microsomes [5] | pIC50 [6] | further results |
| --- | --- | --- | --- | --- | --- |
| CCC(C)[C@@H]1NCCOc2ccccc2/C=C/[C@@H](C)NC(=O)[C@@H](Cc2ccccc2)NC(=O)[C@H](C(C)O)N(C)C1=O (some centres unmarked) [Compound 1315] | 8.00 to 9.00 | C (C = 10-100 nM) | – | – | pKi [1, 10]: 8.00 to 9.00; pIC50 [2]: 7.12 |
| CCC(C)[C@@H]1NCCOc2ccccc2/C=C/CNC(=O)[C@@H](Cc2ccc(C(F)(F)F)cc2)NC(=O)[C@H](C(C)O)N(C)C1=O (some centres unmarked) [Compound 1327] | – | – | – | – | pIC50 [1]: 7.00 to 8.00; pKi [1]: 8.00 to 9.00; pIC50 (CYP2D6): < 4.60; pIC50 (CYP3A4 [4]): < 4.75 |
| CCC(C)[C@@H]1NCCOc2ccccc2C[C@H](O)CNC(=O)[C@@H](Cc2ccccc2)NC(=O)[C@H](C(C)O)N(C)C1=O (some centres unmarked) [Compound 1340] | – | – | – | – | pIC50 [1]: 7.00 to 8.00; pKi [1]: 7.00 to 8.00; pIC50 (CYP2D6): 4.88; pIC50 (CYP3A4 [4]): 4.76 |
| CCC(C)C1NCCOc2ccccc2CCCNC(=O)C(Cc2ccc(Cl)cc2)NC(=O)C(C(C)O)N(C)C1=O (centres unmarked) [Compound 1699] | 7.00 to 8.00 | C (C = 10-100 nM) | 85.2 μL/min/mg protein | 6.30 to 7.00 | – |
| CC(O)[C@H]1C(=O)N[C@H](Cc2ccc(Cl)cc2)C(=O)NC/C=C/c2ccccc2OCCN[C@@H](C2(C)CC2)C(=O)N1C (some centres unmarked) [Compound 1729] | 8.00 to 9.00 | B (B = 1-10 nM) | 54.8 μL/min/mg protein | 7.00 to 7.30 | pIC50 (CYP3A4 [8]): 5.72 |
| CCC(C)C1NCCOc2ccccc2C=CCNC(=O)C(Cc2ccc(Cl)cc2)NC(=O)C(C(C)O)N(C)C1=O (centres unmarked) [Compound 1730] | 8.00 to 9.00 | – | 61.9 μL/min/mg protein | 6.30 to 7.00 | pIC50 (CYP3A4 [8]): 5.80 |
| CC[C@@H]1NCCOc2ccccc2/C=C/CNC(=O)[C@@H](Cc2ccc(Cl)cc2)NC(=O)[C@H](C(C)O)N(C)C1=O (some centres unmarked) [Compound 1732] | 7.00 to 8.00 | – | 52.2 μL/min/mg protein | 6.30 to 7.00 | pIC50 (CYP3A4 [8]): 5.54 |
| CCC(C)C1NCCOc2ccccc2C=CCNC(=O)C(Cc2ccc(Cl)cc2Cl)NC(=O)C(C(C)O)N(C)C1=O (centres unmarked) [Compound 1761] | 7.00 to 8.00 | – | 77.0 μL/min/mg protein | 7.00 to 7.30 | – |
| CC(O)[C@H]1C(=O)N[C@H](Cc2c[nH]c3ccccc23)C(=O)N[C@H](C)CCc2ccccc2OCCN[C@@H](C(C)(C)C)C(=O)N1C (some centres unmarked) [Compound 1762] | 7.00 to 8.00 | – | 73.4 μL/min/mg protein | 6.30 to 7.00 | – |

The next lines start with results.

| pIC50 [1, 10] | Antagonist Activity [3] | HLM, metabolic stability in human liver microsomes [5] | pIC50 [6] | SMILES | further results |
| --- | --- | --- | --- | --- | --- |
| – | C (C = 10-100 nM) | – | – | CCC(C)[C@@H]1NCCOc2ccccc2/C=C/CNC(=O)[C@@H](Cc2cccc(F)c2)NC(=O)[C@H](C(C)O)N(C)C1=O (some centres unmarked) [Compound 1326] | pIC50 [1]: 7.00 to 8.00; pKi [1]: 8.00 to 9.00; pIC50 (CYP2D6): < 5.30; pIC50 (CYP3A4 [4]): 5.66 |
| – | B (B = 1-10 nM) | – | – | CC(C)[C@@H]1NCCOc2ccccc2CC[C@@H](C)NC(=O)[C@@H](Cc2cccc(F)c2)NC(=O)[C@H](C(C)O)N(C)C1=O (some centres unmarked) [Compound 1364] | pIC50 [2]: 6.70 |
| – | C (C = 10-100 nM) | 53 μL/min/mg protein | – | CC(C)[C@@H]1NCCOc2ccccc2CC[C@@H](C)NC(=O)[C@@H]([C@@H](C)c2ccccc2)NC(=O)[C@H](C(C)O)N(C)C1=O (some centres unmarked) [Compound 1390] | pIC50 (CYP2D6): < 4.70; pIC50 (CYP3A4 [4]): 5.16 |
| – | A (A <1 nM) | 16.6 μL/min/mg protein | – | CC(C)[C@@H]1NCCOc2cc(F)ccc2CC[C@@H](C)NC(=O)[C@@H](Cc2ccccc2)NC(=O)[C@H](C(C)O)N(C)C1=O (some centres unmarked) [Compound 1391] | pIC50 [2]: 7.19 |
| – | A (A <1 nM) | 23.6 μL/min/mg protein | – | CC(C)[C@@H]1NCCOc2cc(F)ccc2CC[C@@H](C)NC(=O)[C@@H](Cc2cccc(F)c2)NC(=O)[C@H](C(C)O)N(C)C1=O (some centres unmarked) [Compound 1392] | pIC50 [2]: 8.40 |
| – | A (A <1 nM) | 54.2 μL/min/mg protein | – | CC(C)[C@@H]1NCCOc2ccccc2CC[C@@H](C)NC(=O)[C@@H](Cc2cccc(Cl)c2)NC(=O)[C@H](C(C)O)N(C)C1=O (some centres unmarked) [Compound 1400] | pIC50 [2]: 6.44 |
| 8.00 to 9.00 | – | – | 7.30 to 8.00 | CC(C)[C@@H]1NCCOc2ccccc2C#C[C@@H](C)NC(=O)[C@@H](Cc2ccc(F)cc2)NC(=O)[C@H](C(C)O)N(C)C1=O (some centres unmarked) [Compound 1711] | Binding (%), Human Plasma Protein Binding [7]: 97.4% |
| 8.00 to 9.00 | B (B = 1-10 nM) | 26.1 μL/min/mg protein | 6.30 to 7.00 | CCC(C)C1NCCOc2cc(F)ccc2C=CCNC(=O)C(Cc2ccc(Cl)cc2)NC(=O)C(C(C)O)N(C)C1=O (centres unmarked) [Compound 1739] | – |
| 8.00 to 9.00 | C (C = 10-100 nM) | 28.3 μL/min/mg protein | 6.30 to 7.00 | CCC(C)C1NCCOc2ccc(F)cc2C=CCNC(=O)C(Cc2ccc(Cl)cc2)NC(=O)C(C(C)O)N(C)C1=O (centres unmarked) [Compound 1740] | – |
| 8.00 to 9.00 | – | 40.6 μL/min/mg protein | 7.00 to 7.30 | CC[C@@H]1C#Cc2ccc(F)cc2OCCN[C@@H](C(C)C)C(=O)N(C)[C@@H](C(C)O)C(=O)N[C@H](Cc2ccccc2)C(=O)N1 (some centres unmarked) [Compound 1759] | Cl [9]: 14 ± 2 mL/min/kg; t1/2 [9]: 1.98 ± 1.68 h |
